# Legend:
# [1] = test system: M. graminicola isolate IPO323; assay: UV mutagenesis and selection of resistant colonies on carboxamide amended AE agar; type: cell-based, Mycosphaerella graminicola
# Protocol: Selection plates were produced after adding 1% of a 100× DMSO solution of the active ingredients to pre-melted AE-agar.
# Cells were harvested from 4 days old V8 agar plates and conidial cells were suspended in liquid AE. 10^7 cells were spread onto carboxamide amended AE agar plates and mutagenized using UV Stratalinker 2400 (Stratagene) with 75 mJ cm^−2 or 50 mJ cm^−2. […] Selection plates were incubated in the dark at 20°C for 14 days. Visible colonies were picked from the primary selection plate and re-grown on fresh selection media for 2 additional weeks under the same conditions.
# [2] = test system: M. graminicola WT (IPO323); assay: microbe, parasite or virus in culture; type: cell-based, Mycosphaerella graminicola
# Protocol: To explore the sensitivity profiles conferred by amino acid substitutions at the cellular and mitochondrial level, we determined sensitivity towards 4 different compounds for 26 of the identified substitution types both in vivo using liquid culture growth (AE media) and in vitro using purified mitochondria and the succinate: Q0/DCPIP activity test (Table 3). […] Resistance factors (RF) were determined as the ratio IC50mutant/IC50WT. […] Qp site mutations are well known to influence SDH enzyme activity and stability upon catalysis, [13], [38], [41].
# Conidial cells were collected from 4 day old V8 agar plates (cultured at 18°C in the dark) using liquid AE and a cell spreader. Cell density was determined and cells re-suspended to a concentration of 5×10^5 cells ml^−1 in AE media. Sterile 96 wells microtiter plates with lids (Costar) were inoculated with 198 µl of this cell suspension (10^5 cells per well) and 2 µl of inhibitor (100× in DMSO). Final inhibitor concentrations were between 0.95 nM and 1 mM with uniform 4× dilution factor steps (11 inhibitor concentrations+1 DMSO control). Plates were incubated for 6 days at 19°C in the dark before cells were re-suspended and measured for growth (OD600 nm). IC50 values were determined by non linear curve fitting on the basis of measured OD values versus log inhibitor concentrations (GraphPad Prism 5.0 software).
structure (smiles),measurement,setting,value
CC(C)C1C2CCC1c1c(NC(=O)c3cn(C)nc3C(F)F)cccc12 (stereo not drawn) [Isopyrazam],Frequency (of resistance development),"[1]; selection at 5× MSC, UV treatment 50 mJ cm^−2",1.4E-07
same,Frequency (of resistance development),"[1]; selection at 5× MSC, UV treatment 75 mJ cm^−2",1.7E-07
same,Frequency (of resistance development),"[1]; selection at MSC, UV treatment 50 mJ cm^−2",3.2E-07
same,Frequency (of resistance development),"[1]; selection at MSC, UV treatment 75 mJ cm^−2",4.1E-07
same,Resistance Factors (RFs) in vivo,"[2]; None, IPO323, ratio IC50mutant/IC50WT",1
same,IC50,"[2]; Zymoseptoria tritici, WT (IPO323), liquid culture growth, ±S.E. (triplicate), read-out: IC50 in vivo",55 ± 2 nM

# Reference: PMC3334918, “Mutagenesis and Functional Studies with Succinate Dehydrogenase Inhibitors in the Wheat Pathogen Mycosphaerella graminicola” (PLoS ONE, 2012)
